Measurements as given in patent US20050048113A1, “Composition and method for treatment or prevention of oral cavity disorders” (priority 2003, published 2005).

Experiments:
[1] = tested on: male participants suffering from gingivitis; assay: Loe Silness gingival index (GI) in participants suffering from gingivitis; type: in vivo, human
Description: Twelve male participants (24-42 years old) suffering from gingivitis were divided into 4 groups. Participants of the first group (No.=3) were treated by conventional oral hygiene procedures, including mechanical procedures and usage of mouthwash preparations for 3 months. Participants of the second group (No. =3) were treated by swallowing tablet of Famotidine 40 mg, once daily at bed time, for 3 months. Participants of the third group (No.=3) were treated by sublingual tablet of Famotidine 40 mg, once daily at bed time, for 3 months. Participants of the fourth group (No.=3) were treated by sublingual tablet of Omeprazole 20 mg, once daily at bed time, for 3 months. All participants were screened for dental caries and treated accordingly.
Each participant was examined at recruitment and after then bi-weekly up to 3 months from recruitment (7 examinations for each participant). At each visit gingival index was determined using a standard Loe Silness gingival index (GI) chart, which is accessible at the following website: http://www.medal.org/sheets/ch9/gingival %20index %20Loe %20Silness.xls.
The GI scores of examination No.7 (at 3 months from recruitment) compared to GI scores at examination No.1 (at recruitment), were calculated as mean GI reduction for each group.

[2] = tested on: proton-translocating membrane ATPases of oral streptococci; conditions: cited from earlier work
[3] = famotidine 40 mg per day, sublingual vs p.o. vs no treatment, 3 weeks each; pH 1, 2, 3 hours after a meal and at wakeup; preliminary results
Description: An ongoing study is now being carried out on healthy young (25-40 years old) volunteers. The oral cavity pH is measured 1, 2, and 3 hours after a meal and at wakeup in the morning. These measurements are done daily for each participant, 3 weeks without treatment, 3 weeks under sublingual famotidine (40 mg per day), and 3 weeks under p.o. famotidine (40 mg per day).

[4] = tested on: -person suffering from accelerated cariogenicity and progressive gingivitis
[5] = Famotidine 40 mg per day, tablets swallowed, half year later

## COc1ccc2[nH]c([S+]([O-])Cc3ncc(C)c(OC)c3C)nc2c1 (stereo not shown) [Omeprazole]
[1]; sublingual tablet 20 mg once daily at bed time, 3 months vs recruitment (fourth group)
  mean GI reduction: 27.5%

## C(=NC1CCCCC1)=NC1CCCCC1 [dicyclohexylcarbodiimide]
[2]
  sensitivity of proton-translocating membrane ATPases to the inhibitor: sensitive

## NC(N)=Nc1nc(CSCCC(N)=NS(N)(=O)=O)cs1 [Famotidine]
[3]
  rank order of the highest oral cavity pH: Sublingual Famotidine treatment>p.o. Famotidine treatment>no treatment
[1]; sublingual tablet 40 mg once daily at bed time, 3 months vs recruitment (third group)
  mean GI reduction: 31%
[1]; swallowed tablet 40 mg once daily at bed time, 3 months vs recruitment (second group)
  mean GI reduction: 17.1%
[4]; [5]
  epigastric symptoms: relieved
  symptoms of reflux: persisted
[4]; famotidine tablets taken sublingually instead of swallowed
  reflux symptoms: relieved
[4]; next 5 years under sublingual famotidine treatment
  new caries at twice a year dental follow-ups: new caries were not detected
[4]; sublingual famotidine, in the following months
  gingivitis: improved dramatically

## [N-]=[N+]=[N-] [azide]
[2]
  sensitivity of proton-translocating membrane ATPases to the inhibitor: sensitive

## C[C@@H]1O[C@@H](O[C@H]2C[C@@H](O)[C@]3(CO)[C@H]4[C@H](O)C[C@]5(C)[C@@H](C6=CC(=O)OC6)CC[C@]5(O)[C@@H]4CC[C@]3(O)C2)[C@H](O)[C@H](O)[C@H]1O [ouabain]
[2]
  sensitivity of proton-translocating membrane ATPases to the inhibitor: insensitive

## [O]=[V]([O-])([O-])[O-] [vanadate]
[2]
  sensitivity of proton-translocating membrane ATPases to the inhibitor: insensitive
